Experimental data from paper PMC9673804, “Design, synthesis and antitumor evaluation of novel pyrazolo[3,4-d]pyrimidines incorporating different amino acid conjugates as potential DHFR inhibitors” (Journal of Enzyme Inhibition and Medicinal Chemistry, 2022).
pIC50: −log10 of the molar value. Values joined by “and” are separate entries in the source; they are usually repeats but may differ in a detail not shown here. Equal values may be shown once.

Columns and labels:
Bcl-2 = test: Western blot of Bcl-2 expression in MCF-7; type: cell-based, human
Experimental: (§1) The effect of compound 7f on the expression of DHFR, Casp3, Bax, and Bcl-2 proteins in MCF-7 cancer cells was evaluated by western blotting as previously performed. The cancer cells treated or untreated were collected were harvested and blotted on SDS-polyacrylamide gel and separated by Cleaver electrophoresis unit (Cleaver, UK), transferred onto polyvinylidene fluoride (PVDF) membranes (Millipore, USA) for 30 min using a Semi-dry Electroblotter (Biorad, USA) at 2.5 A and 25 V for 30 min. […] After washing, the chemiluminescent Western ECL substrate (Perkin Elmer, Waltham, MA, USA) was applied to the blot and then incubated for 1 min with a mixture of equal volumes from ECL solution A and ECL solution B. The chemiluminescent signals were captured using a CCD camera-based imager (Chemi Doc imager, Biorad, USA), and the bands intensities were then measured by Image J software program. […] For colorimetric assays two-way ANOVA test followed by Bonferroni posttest were used, while for quantification expression on western blot, student-t-test was used (significance p < 0.05). […]
(§2) Sodium dodecyl sulfate polyacrylamide gel electrophoresis (SDS-PAGE) is used to separate proteins based on their size. […] The secondary antibody is typically linked to an enzyme that produces luminescence upon the reaction with its substrate. […]

[1] = test system: MCF-7 breast cancer cell line; test: Annexin-V-FITC/PI cell apoptosis assay; type: cell-based, human; details: MCF-7, Annexin V-FITC/PI, 24 h
Experimental: Cell cycle analysis was done for the compound 7f against MCF-7 breast cancer cell line[11]^,[14]. Clearly, compound 7f enhanced the accumulation proportion of cells at the pre-G1 phase from 2.19 to 41.36%, and the accumulation percentages in S phase from 31.87 to 46.36%.
Flow cytometric analysis using Annexin-V-fluoresce in isothiocyanate (FITC) and propidium iodide (PI) staining kit (BD Pharmingen, San Diego, USA) was performed to assess the apoptosis. At 70% confluence, the cells were treated with compound 7f at different concentrations of (0–8 μmol/l) for 24 h. Then after trypsinization of cells, washing with PBS and centrifugation, the cells were mixed with FITC and PI in binding buffer. Becton Dickinson (Franklin Lakes, NJ, USA) was used to do the flow cytometry analysis[16]^,[17].

caspase 3/7 = test: Caspase-Glo 3/7 assay in MCF-7; type: cell-based, human; details: ½ IC50, IC50, 2×IC50, dose dependent
Experimental: The apoptotic effect of compound 7f on breast cancer cell line MCF-7 were evaluated by quantification of Bax, caspase 3/7, and Bcl-2 using Bax ELISA Kit ab199080 (ABCAM, Cambridge, UK), Caspase-Glo 3/7 assay kits (Promega, Fitchburg, MA, USA), and Bcl-2 ELISA Kit ab119506 (ABCAM, Cambridge, UK), according the instructions of manufacturers[11]^,[14]. The cells were treated with compounds 7f (½ IC50, IC50, or 2 ×IC50), and the activities were shown as a percentage change from the untreated control. The experiments were performed in triplicate applying two-way ANOVA test followed by Bonferroni posttest to evaluate the significance (p < 0.05).

human DHFR enzyme = target: T1, human DHFR enzyme (Homo sapiens, UniProt P00374); test: Elisa assay of human DHFR enzyme; type: biochemical
T1 construct: purchased MyBioSource MBS9312476
T1 sequence (P00374 1-187): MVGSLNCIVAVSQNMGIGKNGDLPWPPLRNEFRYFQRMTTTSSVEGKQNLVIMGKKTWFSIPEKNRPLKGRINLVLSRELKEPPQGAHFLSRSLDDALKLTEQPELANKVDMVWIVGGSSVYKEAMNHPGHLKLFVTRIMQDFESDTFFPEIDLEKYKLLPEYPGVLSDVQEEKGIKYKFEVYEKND
Experimental: Enzyme-linked immunosorbent assay (ELISA) assay technique was used to evaluate the anti-DHFR effects of all the synthesised compounds on as described previously. The DHFR ELISA kit (MyBioSource, MBS9312476 San Diego, CA, USA) was used according to the manufacturer instructions. […] The test was repeated in triplicate, and the significance was assessed by one-way ANOVA test followed by Tukey’s posttest, where p < 0.05 was considered significance.

caspase 3 = test: Western blot of caspase-3 expression in MCF-7; type: cell-based, human
Experimental: as §1, §2

Structure (SMILES): N=C(N)NCCCC(NC(=O)c1ccc(Nc2ncnc3c2cnn3-c2ccccc2)cc1)C(=O)O (stereo not shown) [Compound 7f, 5-Guanidino-2-{4-[(1-phenyl-1H-pyrazolo[3,4-d]pyrimidin-4-yl)amino]benzamido}pentanoic acid]
- western blotting OD Bcl2 (Bcl-2; MCF7 cells, Cont.MCF7 0.762): 0.501 OD
- expression of Bcl-2 (western blot) (Bcl-2; MCF-7, compound at IC50): significantly down-regulated the expression of Bcl-2
- Apoptosis Late ([1]; control 0.13): 21.31%
- Apoptosis Early ([1]; control 0.66): 14.12%
- Necrosis ([1]; control 1.4): 5.93%
- release of caspase 3/7 (caspase 3/7): significantly surge the release
- pIC50 (human DHFR enzyme; DHFR ELISA kit, triplicate): > 6.00 and 6.51
- inhibition at 0.1 µM (human DHFR enzyme; conc 0.1 uM): 44%
- inhibition at 1 µM (human DHFR enzyme; conc 1 uM): 66%
- inhibition at 10 µM (human DHFR enzyme; conc 10 uM): 86%
- inhibition at 100 µM (human DHFR enzyme; conc 100 uM): 94%
- western blotting OD Casp3 (caspase 3; MCF7 cells, Cont.MCF7 0.171): 0.575 OD
- expression of caspase 3 (western blot) (caspase 3; MCF-7): significantly increased the expression
